Data set [1] deals with human meibomian gland epithelial cells. In words: Filipin III staining of free (unesterified) cholesterol. It counts as cell-based. To be noted: 10 μg/ml, 5 days. As for the experimental part:
This section outlines the materials and methods that produced the experimental data. Immortalized human meibomian gland epithelial cells were cultured in the presence or absence of 10% fetal bovine serum. After reaching 80-90% confluence (˜5×10^6/well), cells were exposed to the vehicle (0.02% ethanol) or azithromycin (10 μg/ml) for 5 days and then processed for histological and biochemical procedures.
Cell numbers were enumerated with a hemocytometer. Cellular lipid and lysosome accumulation were examined by staining cells with: Filipin III (a fluorometric probe for identifying unesterified cholesterol), LipidTOX green neutral lipid stain, and LysoTracker® Red DND-99 (a fluorescent technique designed for labeling acidic organelles such as lysosomes). Lysosomal lamellar bodies were identified by transmission electron microscopy. In brief, after culture and treatment on 24 mm polycarbonate membrane transwell inserts (0.4 μm pore size), cells were fixed in a solution of 2% formaldehyde+2.5% glutaraldehyde, in 0.08 M sodium cacodylate buffer, pH 7.4, post-fixed with 2% osmium tetroxide in 0.1 M sodium cacodylate buffer, and stained en bloc with 2% aqueousuranyl acetate. […] Lipids were then evaluated with high-performance thin-layer chromatography. […] Image data were quantified with ImageJ (http://rsbweb.nib.gov/ij/index.html). […]

For data set [2], the system named is immortalized human meibomian gland epithelial cells. In words: Cellular morphology (terminal maturation, holocrine-like secretion). The class given is cell-based. To be noted: azithromycin 10 μg/ml. Here is the method:
As an example of these experiments, immortalized human meibomian gland epithelial cells were cultured in the presence or absence of 10% fetal bovine serum. Cells were treated with an ethanol vehicle or azithromycin (10 μg/ml; Santa Cruz Biotechnology) for varying time periods. Cellular morphological appearance was recorded, cells were counted with a hemocytometer, and lipid accumulation was assessed by staining the cells with LipidTOX green neutral lipid stain (Invitrogen, Grand Island, N.Y.), according to reported methods. Staining fluorescent intensities were quantified by using ImageJ (http://rsbweb.nih.gov/ij/index.html). Statistical analyses were performed with Student's t-test (two-tailed, unpaired). Immortalized human meibomian gland epithelial cells ([…]; passages 20-22) were cultured in the presence or absence of 10% fetal bovine serum. Cells were treated with the ethanol vehicle or azithromycin (10 μg/mL) for varying periods. Cellular morphological appearance was recorded, cells were counted with a hemocytometer, and lipid accumulation was assessed by staining cells with LipidTOX green neutral lipid stain (Invitrogen Corp). Staining fluorescent intensities were quantified using ImageJ software (http://rsbweb.nih.gov/ij/index.html). Statistical analyses were performed with t test (2-tailed, unpaired).

For data set [3] the following is noted: topical 0.5, 1.0 and 1.5% AZM eye drops, for 24 hours; cited from earlier work.
For data set [4], the system named is human meibomian gland epithelial cells. The data set is described as follows: Transmission electron microscopy of lysosomal lamellar bodies. The class given is cell-based. To be noted: 10 μg/ml, 5 days. An excerpt: (§1) Cell numbers were enumerated with a hemocytometer. Cellular lipid and lysosome accumulation were examined by staining cells with: Filipin III (a fluorometric probe for identifying unesterified cholesterol), LipidTOX green neutral lipid stain, and LysoTracker® Red DND-99 (a fluorescent technique designed for labeling acidic organelles such as lysosomes). Lysosomal lamellar bodies were identified by transmission electron microscopy. In brief, after culture and treatment on 24 mm polycarbonate membrane transwell inserts (0.4 μm pore size), cells were fixed in a solution of 2% formaldehyde+2.5% glutaraldehyde, in 0.08 M sodium cacodylate buffer, pH 7.4, post-fixed with 2% osmium tetroxide in 0.1 M sodium cacodylate buffer, and stained en bloc with 2% aqueousuranyl acetate. Samples were then dehydrated in graded ethyl alcohol solutions and embedded by using the tEPON-812 epoxy resin kit. Cross sections ([…]) were stained with 1% toluidine blue in 1% sodium tetraborate solution. Ultra-thin sections (60-90 nm) were imaged with a transmission electron microscope interfaced with a digital CCD camera. For biochemical assessments, cellular lipids were extracted with chloroform and methanol from samples with the same amount of protein. Lipids were then evaluated with high-performance thin-layer chromatography. […] Image data were quantified with ImageJ (http://rsbweb.nib.gov/ij/index.html). […]

Data set [5] has the same test system. The data set is described as follows: LysoTracker Red staining of lysosomes. It counts as cell-based. To be noted: 10 μg/ml, 5 days. As for the experimental part:
This section outlines the materials and methods that produced the experimental data. Immortalized human meibomian gland epithelial cells were cultured in the presence or absence of 10% fetal bovine serum. […]
as §1, with “Ultra-thin sections (60-90 nm) were imaged with a transmission electron microscope interfaced with a digital CCD camera. For biochemical assessments, cellular lipids were extracted with chloroform and methanol from samples with the same amount of protein.” left out

The next data set has as its system LNCaP cells. The data set is described as follows: Immunoblot of JAK2/STAT5 pathway in positive control cells. It counts as cell-based. Here is the method: The disclosure turns now to sodium dodecyl sulfate-polyacrylamide gel, electrophoresis, and immunoblots. Cells were directly lysed in Laemmli buffer supplemented with 1% protease inhibitor cocktail (Sigma-Aldrich) and 5% β-mercaptoethanol (Sigma-Aldrich). Lysates were heated at 95° C. for 10 minutes, separated by sodium dodecyl sulfate-polyacrylamide gel electrophoresis on 10% Tris-glycine precast gels, and transferred to polyvinylidene difluoride membranes. Rabbit or mouse antibodies used were specific for phosphorylated Akt (p-Akt), pan-Akt, p-FoxO1, FoxO1, p-JAK2, JAK2, and β-actin; for p-ERK, ERK-2, STAT5, and the precursor form of SREBP-1; and for p-STAT5. Membranes were blocked with 5% bovine serum albumin in Tris-buffered saline containing 0.01% polysorbate 20. All primary antibodies were diluted to 1:1000 in blocking buffer except for p-Akt (1:4000), p-ERK (1:2000), ERK-2 (1:4000), SREBP-1 (1:200), and β-actin (1:10 000). Horseradish peroxidase-conjugated secondary antibodies were goat anti-rabbit IgG and Fc-specific goat anti-mouse IgG diluted to 1:5000. […]
FIGS. 9a, 9b, and 9c illustrate the effects of insulin-like growth factor 1 (IGF-1) and growth hormone (GH) on signaling pathways in human meibomian gland epithelial cells. […] Cell lysates were evaluated on immunoblotting. […]

In the case of `CC[C@H]1OC(=O)[C@H](C)[C@@H](O[C@H]2C[C@@](C)(OC)[C@@H](O)[C@H](C)O2)[C@H](C)[C@@H](O[C@@H]2O[C@H](C)C[C@H](N(C)C)[C@H]2O)[C@](C)(O)C[C@@H](C)CN(C)[C@H](C)[C@@H](O)[C@]1(C)O` [Azithromycin], in data set [1], the “accumulation of free cholesterol (Filipin)” value is on record as “significantly stimulates the accumulation”. In data set [2], the “terminal maturation and holocrine-like secretion” value was “promote terminal maturation”. Besides, in data set [3], the tear concentration result is reported as “above 7 μg/ml”. Moreover, in data set [4], the lysosomal lamellar bodies result is “many of these lysosomes appear to be onion-shaped lamellar bodies”. In data set [5], the “accumulation of lysosomes (LysoTracker)” value was “significantly stimulates the accumulation”.
On to GH: human growth hormone, for which the “activation of JAK2/STAT5 pathway” value in the data set on LNCaP cells is recorded as “activated the JAK2/STAT5 pathway”.

(Values after patent US20200297820A1, “STIMULATION OF HUMAN MEIBOMIAN GLAND FUNCTION” (The Schepens Eye Research Institute, Inc., priority 2013, published 2020).)
